Read-outs that look alike come from different tables or passages of the source.
What was measured:
ddy strain of male mice [1] = test: Analgesic activity, Haffner method (morphine threshold dose, clamp); format: in vivo, mouse (ddy); conditions: for ED50: oral, Δ mark, range in parentheses; for inhibition in vivo at 200 mg/kg: 200 mg/kg oral; for Analgesic activity, Haffner method, inhibitory ratio / inhibition in vivo at 100 mg/kg: 100 mg/kg oral, 45 minutes before morphine hydrochloride
Experimental: (§1) Next, several tests for determining the pharmacological properties, in that acute toxicity, anti-pyretic activity, analgesic activity and anti-inflammatory activity of the present 1,1,3,5-substituted biuret compounds of the formula (1) were conducted and the test results are shown in Table (2). In the tests, each compounds to be tested was used as a suspension in 0.25% carboxymethylcellulose solution. Methods for testing are explained as follows:
According to the modified method reported by Fujimura et. al., [Bulletin of the Institute for Chemical Research, Kyoto University, No. 25, pp. 36 (1951)], the ddy strain of male mice (body weight, 20-25 g) were used as test animals. The mice were fasted overnight, 100 mg/kg body weight of the test compound was administered orally, then 45 minutes after the administration, the threshold amount (1.5-2.5 mg/kg body weight) of morphine hydrochloride was injected subcutaneously. Then 1-hour pain reaction of the mouse caused by a clamp was observed. Analgesic activity of the test compound was calculated as the inhibitory ratio (%). In Table 2, the values in parentheses show the data obtained from the test by using the dosage other than 100 mg/kg body weight. Further, the values indicated with Δ marks show 50% effective dose, ED50 (mg/kg body weight).

[2] = system: Wistar strain of male rats; test: Anti-inflammatory activity (acute carrageenin-induced inflammatory test, hindpaw); format: in vivo, rat (Wistar)
Experimental: as §1
According to the method of acute carrageenin-induced inflammatory test [Folia Pharmacologia Japonica, Vol. 56, pp. 575 (1960)], the Wistar strain of male rats (body weight, 150-180 g) were used as test animals. The rats were fasted overnight, 100 mg/kg body weight of the test compound was administered orally, then 1 hour after the administration, 0.1 ml of 1% carrageenin solution, as the inflammation inducing agent, was injected subcutaneously to the hindpaw of the rat and the volume of the hindpaw was measured at time sequences, Anti-inflammatory activity of the test compound was calculated as inflammation inhibitory ratio (%) at 3 hours after the injection of inflammation inducing agent.

ddy strain of male mice [3] = test: Analgesic activity, acetic acid-induced stretching method; format: in vivo, mouse (ddy); conditions: for ED50: oral, Δ mark, range in parentheses
Experimental: as §1
According to the method reported by Koster et al., [Fed. Proc., Vol. 18, pp. 412 (1959)], the ddy strain of male mice (body weight, 20-25 g) were used as test animals. The mice were fasted overnight, 100 mg/kg body weight of the test compound was administered orally, then 1 hour after the administration, 0.2 ml of 0.7% acetic acid solution was injected intraperitoneally. The acetic acid-induced stretching symptom of mouse was observed. Analgesic activity of the test compound was calculated as the inhibitory ratio (%). In Table 2, the values in parentheses show the data obtained from the test by using the dosage other than 100 mg/kg body weight. Further, the values indicated with Δ marks show 50% effective dose, ED50 (mg/kg body weight).

[4] = Acute toxicity (oral, mice, 7 days observation); format: in vivo; conditions: mouse, in vivo
Experimental: as §1
(§2) The ddy strain of male mice (body weight, 20-25 g) were used as test animals. The mice were fasted overnight and the compound to be tested was administered orally. […] The lethal dose (mg/kg, body weight) of the test compound was determined in connection with the death number of mice/the number of mice tested. In Table 2, the values indicated with Δ marks are 50% lethal dose, LD50 (mg/kg, body weight).

[5] = system: Wistar strain of male rats; test: Anti-pyretic activity (dry-yeast-induced fever); format: in vivo, rat (Wistar); conditions: oral (dose not given), up to 4 hours after administration
Experimental: as §1
According to the method reported by Tanabe [Folia Pharmacologia Japonica, Vol. 73, pp. 803 (1977)], the Wistar strain of male rats (150-180 g, body weight) were used as test animals. The rats were fasted overnight, and 1 ml/100 g (body weight) of 10% dry-yeast suspension were subcutaneously injected on the back of the rats. Five hours after the injection, the test compound was administered orally, then the body temperature of the rat was measured at time sequences. Anti-pyretic activity of the test compound was determined as the FI (febril index) by integrating pyrogenetic curve up to 4 hours after the administration of the test compound with time, and indicated as inhibitory ratio (%) shown by the following formula, [formula]

ddy strain of male mice [6] = test: Acute toxicity (oral, mice, 7 days observation); format: in vivo
Experimental: as §1, §2

[7] = Rattus norvegicus, po, 3 h, read-out: Anti-inflammatory activity, inflammation inhibitory ratio
[8] = oral, male ddy mice, 7 days observation, Δ mark, read-out: 50% lethal dose, LD50
[9] = Rattus norvegicus, 100 mg/kg oral, 3 hours after carrageenin, read-out: Anti-inflammatory activity, inflammation inhibitory ratio
[10] = Mus musculus, read-out: Analgesic activity, Haffner method, inhibitory ratio
[11] = Mus musculus, po, read-out: Analgesic activity, acetic acid-induced stretching method, inhibitory ratio
[12] = 100 mg/kg oral, 3 hours after carrageenin
[13] = 100 mg/kg oral, 1 hour before acetic acid

Row | Structure (SMILES) | inhibition in vivo at 100 mg/kg [2, 7] | Anti-pyretic activity, inhibitory ratio (febril index) [5] | Acute toxicity: death number of mice/number of mice tested (ddy strain of male mice [6]; 1000 mg/kg oral) | inhibition in vivo at 100 mg/kg (ddy strain of male mice [3]; [11]) | Acute toxicity: death number of mice/number of mice tested (ddy strain of male mice [6]; 2000 mg/kg oral) | inhibition in vivo at 100 mg/kg (ddy strain of male mice [1]; [10]) | further results
1 | CNC(=O)NC(=O)N(C)c1ccccc1 [Compound No. 49, 1,5-dimethyl-1-phenylbiuret] | 32% | 84% |  |  |  |  | ED50 (ddy strain of male mice [1]; Mus musculus): 86 mg/kg; ED50 (ddy strain of male mice [3]; Mus musculus): 34 mg/kg; LD50 at 168 h [4, 8]: 1600 mg/kg
2 | CCCNC(=O)N(C)C(=O)N(C)c1ccccc1 [Compound No. 55, 1,3-Dimethyl-1-phenyl-5-n-propylbiuret] |  | 80% | 1/4 |  |  |  | ED50 (ddy strain of male mice [1]; Mus musculus): 90 mg/kg; inhibition in vivo at 100 mg/kg [2, 9]: 73%; ED50 (ddy strain of male mice [3]; Mus musculus): 80 mg/kg; Acute toxicity: death number of mice/number of mice tested (ddy strain of male mice [6]; 1500 mg/kg oral): 4/4
3 | CCN(CC)C(=O)N(C)C(=O)Nc1ccccc1 [Compound No. 57, 1,1-diethyl-3-methyl-5-phenylbiuret] | 23% | 19% |  | 37.5% | 1/4 |  | inhibition in vivo at 200 mg/kg (ddy strain of male mice [1]; [10]): 50%
4 | CN(C)C(=O)N(C)C(=O)Nc1c(F)c(F)cc(F)c1F [compound 9, 1,1,3-Trimethyl-5-(2,3,5,6-tetrafluorophenyl)biuret] |  | 33% | 4/4 |  |  |  | Analgesic activity, Haffner method, inhibitory ratio (ddy strain of male mice [1]): 50%; Anti-inflammatory activity, inflammation inhibitory ratio [2, 12]: 24%; Analgesic activity, acetic acid-induced stretching method, inhibitory ratio (ddy strain of male mice [3]; [13]): 87.5%; Acute toxicity: death number of mice/number of mice tested (ddy strain of male mice [6]; 500 mg/kg oral): 0/4
5 | CN(C)C(=O)N(C)C(=O)Nc1cccc(C(F)(F)F)c1 [compound 18, 1,1,3-Trimethyl-5-(3-trifluoromethylphenyl)biuret] |  | 62% | 0/4 |  | 4/4 |  | ED50 (ddy strain of male mice [1]; Mus musculus): 64 mg/kg; Anti-inflammatory activity, inflammation inhibitory ratio ([2]; 100 mg/kg oral, (2 hours)): 32%; Analgesic activity, acetic acid-induced stretching method, inhibitory ratio (ddy strain of male mice [3]; [13]): 37.5%
6 | Cc1cccc(NC(=O)N(C)C(=O)N(C)C)c1 [compound 27, 1,1,3-Trimethyl-5-(3-methylphenyl)biuret] |  | 31% |  |  | 2/4 |  | Analgesic activity, Haffner method, inhibitory ratio (ddy strain of male mice [1]): 37.5%; Anti-inflammatory activity, inflammation inhibitory ratio [2, 12]: 28%; Analgesic activity, acetic acid-induced stretching method, inhibitory ratio (ddy strain of male mice [3]; [13]): 75%
7 | CCN(C(=O)Nc1ccccc1)C(=O)N(C)C [compound 36, 1,1-Dimethyl-3-ethyl-5-phenylbiuret] |  | 12% | 0/4 |  | 3/4 | 62.5% | Anti-inflammatory activity, inflammation inhibitory ratio [2, 12]: 23%; Analgesic activity, acetic acid-induced stretching method, inhibitory ratio (ddy strain of male mice [3]; [13]): 62.5%
8 | CCCCN(C(=O)Nc1ccccc1)C(=O)N(C)C [compound 38, 1,1-Dimethyl-3-n-butyl-5-phenylbiuret] |  | 18% | 0/4 |  | 3/4 |  | inhibition in vivo at 200 mg/kg (ddy strain of male mice [1]; [10]): 37.5%; inhibition in vivo at 100 mg/kg [2, 9]: 31%; Analgesic activity, acetic acid-induced stretching method, inhibitory ratio (ddy strain of male mice [3]; [13]): 37.5%
9 | CNC(=O)N(C(=O)N(C)C)c1ccccc1 [compound 39, 1,1,5-Trimethyl-3-phenylbiuret] |  |  |  |  |  |  | inhibition in vivo at 50 mg/kg (ddy strain of male mice [1]; Mus musculus, 50 mg/kg oral, read-out: Analgesic activity, Haffner method, inhibitory ratio): 25%; inhibition in vivo at 25 mg/kg [2, 7]: 33%; inhibition in vivo at 50 mg/kg (ddy strain of male mice [3]; [11]): 25%; LD50 at 168 h [4, 8]: 93 mg/kg
10 | CN(C)C(=O)N(C(=O)NC1CCCCC1)c1ccccc1 [compound 41, 1,1-Dimethyl-3-phenyl-5-cyclohexylbiuret] |  |  |  |  |  | 62.5% | inhibition in vivo at 200 mg/kg (ddy strain of male mice [3]; [11]): 50%; LD50 at 168 h [4, 8]: 1280 mg/kg
11 | CCN(C)C(=O)NC(=O)NCc1ccccc1 [compound 44, 1-Methyl-1-ethyl-5-benzylbiuret] | 47% |  |  |  |  |  | inhibition in vivo at 200 mg/kg (ddy strain of male mice [3]; Mus musculus, 200 mg/kg oral, read-out: Analgesic activity, acetic acid-induced stretching method, inhibitory ratio): 87.5%; LD50 at 168 h [4, 8]: 1400 mg/kg
12 | CCCN(C)C(=O)N(C)C(=O)Nc1ccccc1 [compound 46, 1,3-Dimethyl-1-n-propyl-5-phenylbiuret] |  | 44% | 1/4 |  | 4/4 |  | Analgesic activity, Haffner method, inhibitory ratio (ddy strain of male mice [1]): 37.5%; Anti-inflammatory activity, inflammation inhibitory ratio ([2]; 100 mg/kg oral, (2 hours)): 26%; Analgesic activity, acetic acid-induced stretching method, inhibitory ratio (ddy strain of male mice [3]; 60 mg/kg oral): 75%
13 | CCCNC(=O)NC(=O)N(C)c1ccccc1 [compound 51, 1-Methyl-1-phenyl-5-n-propylbiuret] | 60% | 164% | 2/4 | 37.5% |  | 87.5% | Acute toxicity: death number of mice/number of mice tested (ddy strain of male mice [6]; 500 mg/kg oral): 1/4
14 | CCCCNC(=O)NC(=O)N(C)c1ccccc1 [compound 52, 1-Methyl-1-phenyl-5-n-butylbiuret] |  | 104% | 0/4 |  | 3/4 | 50% | inhibition in vivo at 100 mg/kg [2, 9]: 48%; inhibition in vivo at 100 mg/kg (ddy strain of male mice [3]; Mus musculus, 100 mg/kg oral, 1 hour before acetic acid, read-out: Analgesic activity, acetic acid-induced stretching method, inhibitory ratio): 62.5%
15 | CCN(C(=O)N(C)C(=O)NC)c1ccc(Cl)cc1 [compound 60, 1-Ethyl-1-(4-chlorophenyl)-3,5-dimethylbiuret] | 33% | 88% | 1/4 | 75% | 3/4 | 50% | 
16 | CCN(C(=O)N(C)C(=O)NC)c1ccc(C)cc1 [compound 62] |  | 18% |  | 62.5% |  | 37.5% | LD50 at 168 h ([4]; po): 1480 mg/kg
17 | CCCN(C(=O)N(C)C(=O)NC)c1ccccc1 [compound 63, 1-n-Propyl-1-phenyl-3,5-dimethylbiuret] |  | 76% | 3/4 | 50% | 4/4 | 50% | inhibition in vivo at 100 mg/kg [2, 9]: 58%
18 | CCCCN(C(=O)N(C)C(=O)NC)c1ccccc1 [compound 64, 1-n-Butyl-1-phenyl-3,5-dimethylbiuret] | 43% | 50% | 2/4 | 25% |  | 37.5% | Acute toxicity: death number of mice/number of mice tested (ddy strain of male mice [6]; 500 mg/kg oral): 1/4
19 | CN(C(=O)Nc1ccccc1)C(=O)N1CCCCC1 [compound 70, 1,1-Pentamethylene-3-methyl-5-phenylbiuret] |  |  |  | 62.5% |  | 37.5% | LD50 at 168 h [4, 8]: 515 mg/kg

Reference: US4371544A, “Pharmaceutical composition containing 1,1,3,5-substituted biuret compound” (Taiho Pharmaceutical Company Limited, priority 1979, dated 1983)
